Earlier results as cited in publication PMC4846294 (Bioorganic & medicinal chemistry, 2016).
Marks after values point to notes of the source that are not given here.

Columns and labels:
NCI-H460 (lung) = conditions: read-out: GI50 SRB Assay NCI-H460; cited from earlier work
tubulin = conditions: inhibitor 5 μM; cited from earlier work
[1] = tested on: purified bovine brain tubulin; conditions: read-out: Inhibition of Tubulin Polymerization IC50; cited from earlier work
DU-145 (prostate) = conditions: read-out: GI50 SRB Assay DU-145; cited from earlier work
SK-OV-3 (ovarian) = conditions: read-out: GI50 SRB Assay SK-OV-3; cited from earlier work

## COc1ccc(/C=C\c2cc(OC)c(OC)c(OC)c2)c(O)c1O [CA1, combretastatin A-1]
NCI-H460 (lung)
  GI50: 15.3 ± 15.8 nM
tubulin
  Inhibition of Colchicine Binding (% Inhibition±SD): 99.6±0.7^b %
[1]
  IC50: 1900 nM
DU-145 (prostate)
  GI50: 32.6 ± 17.3 nM
SK-OV-3 (ovarian)
  GI50: 38.4 ± 24.2 nM
